Results reported in patent US4966894A, “Polysulfated heparins for treating diseases caused by retroviruses” (BASF Aktiengesellschaft, priority 1987, dated 1990).

Columns and labels:
[1] = tested on: reverse transcriptase of Schmidt-Ruppin D (SR-D) virus; details: German Laid-Open Application DOS No. 3,601,136; cited from earlier work
[2] = tested on: reverse transcriptase from HIV I; details: literature and own experiments, cf. Table 1; cited from earlier work
[3] = tested on: HIV; details: Antiviral Res. 7 [1987], 361; cited from earlier work
[4] = background statement; may induce hemorrhages; cited from earlier work
[5] = tested on: reverse transcriptase from HIV I; assay: Enzyme test with reverse transcriptase from HIV I; assay type: biochemical; details: 50 μg/ml substance; 120 minutes at 37° C.; poly(rA)/oligo(dT)15 matrix, 3H-dTTP
Protocol: I. Enzyme test with reverse transcriptase from HIV I
In the model system described below, the activity of the reverse transcriptase is determined in the presence of an inhibitor, essentially according to Hansen et al. (J. Biol. Chem. 262 [1987], 12393).
The enzyme test has a total volume of 50 μl and contains the following components: 50 mM tris-HCl pH 7.8, 80 mM KCl, 8 mM MgCl2 and 1 mM DTT. This system contains the synthetic polymer poly(rA)/oligo (dT)15 (Boehringer Mannheim) as a matrix, in a concentration of 1 mg/ml. This matrix consists of a synthetic RNA having a length of 100-200 nucleotides,to which short DNA primers having a length of 15 nucleotides are bonded. The DNA primers serve as starting points for the reverse transcriptase. […]
The DNA bound to the exchanger is dried under an infrared lamp, after which the activity is determined by liquid scintillation measurement. The unspecific background is the radioactivity bound to the DEAE filter in the absence of reverse transcriptase in the method described above. […]
The activity of the reverse transcriptase in the presence of a potential inhibitor is expressed as a percentage of the activity in the absence of an inhibitor; or the inhibitory action of a substance (%) is defined as 100% minus the activity in percent.

Row | Substance | inhibition of reverse transcriptase of SR-D virus [1] | inhibitory action on reverse transcriptase of HIV I (in words) [2] | inhibition of HIV replication in vitro [3] | anticoagulant properties [4] | Inhibition % [5] [%]
1 | heparin [Commercial heparin] | inhibits reverse transcriptase | could not, however, be confirmed | selective inhibitor of HIV replication in vitro | has anticoagulant properties | –
2 | heparin [Unfractionated heparin] | – | – | – | – | 0
